pIC50: −log10 of the molar value.
Tests used:
mice colon cancer CT26 = conditions: according to document reports; cited from earlier work
[1] = Liver microsome stability, mouse; type: in vitro ADME, CD-1 mice; conditions: mouse liver microsomes; for CLint scaled: CD-1, read-out: Intrinsic clearance; for Remaining % (60 min): 37° C.
Procedure: (§1) The purpose of research in the present experiment is assessing phase I metabolic stability of the sample for test in CD-1 mice, SD rats, and human liver microsomes.
(§2) The animals and human liver microsomes used in this test system were purchased from BD Gentest, Xenotech, Corning or BioreclamationIVT, and stored in a refrigerator at −80° C. before use.
(§3) The sample for test and control were incubated together with the microsomes under a condition of 37° C. for 60 minutes, and a cold acetonitrile solution (or other organic solvents) containing an internal standard substance was added at a designated time point to terminate the reaction. After centrifugation, a resultant supernatant was assayed in a semiquantitative manner through liquid chromatography tandem mass spectrometry (LC/MS/MS). Software Analyst (AB Sciex, Framingham, Mass., USA) was used for processing retention time of analyte and internal standard, and achieving chromatogram collection, and chromatogram integration
(§4) An in vitro elimination rate constant ke of the sample was obtained by converting a ratio of the sample to a peak area of the internal standard to remaining percentage, to calculate an in vitro elimination rate and half-life of the sample for test.

[2] = Liver microsome stability, human; type: in vitro ADME; conditions: human liver microsomes; for Remaining % (60 min): 37° C.; for CLint scaled: read-out: Intrinsic clearance
Procedure: as §1, §2, §3, §4

[3] = Pharmacokinetics experiment of mice in vivo, single intravenous injection; parameters: species or system male CD-1 mice; conditions: Mouse PK, IV 1 mg/kg; for AUC(0-inf) / AUC(0-t) / Vd / clearance / half-life: male, CD-1, plasma
Procedure: The present experiment aimed at researching status of pharmacokinetics of a sample for test in plasma of male CD-1 mice after single intravenous injection.
Three animals in an intravenous group were intravenously injected with the sample for test by 1 mg/kg, and a formulation was 0.2 mg/mL settled solution of 5% DMSO/95% (10% HP-β-CD). 5 minutes, 15 minutes, 30 minutes, 1 hour, 2 hours, 4 hours, 6 hours, 8 hours, and 24 hours after the administration, blood was collected and prepared into a plasma specimen, with an anticoagulant of EDTA-K2. Plasma concentration data was obtained by analyzing the specimen through LC-MS/MS.
The plasma drug concentration data was processed with a non-compartment model using WinNonlin™ Version 6.3 (Pharsight, Mountain View, Calif.) pharmacokinetics software. Following pharmacokinetics parameters were calculated using a log-linear trapezoidal method: elimination phase half-life (T1/2), apparent volume of distribution (Vdss), and clearance rate (CL), mean retention time of drug in body from point 0 to end time point (MRT0-last), mean retention time of drug in body from point 0 to infinite time (MRT0-inf), area under a time-plasma concentration curve from point 0 to end time point (AUC0-last), area under a time-plasma concentration curve from point 0 to infinite time (AUC0-inf), and initial concentration (C0).

CYP2C19 = target: T1, CYP2C19 (Homo sapiens, UniProt P33261); test: Inhibition on human liver microsome CYP2C19; type: in vitro ADME; conditions: human liver microsomes; for pIC50: 5-in-1 probe substrate
T1 construct: tissue Corning Inc. or XenoTech, LLC. or other suppliers; host or cells: mixed human liver microsomes
Procedure: (§5) The research project aimed at evaluating inhibitory ability of a sample for test on human liver microsome cytochrome P450 isozymes (CYP1A2, CYP2C9, CYP2C19, CYP2D6, and CYP3A4) with use of a 5-in-1 probe substrate for CYP isozymes.
(§6) Mixed human liver microsomes (HLM) were purchased from Corning Inc. (Steuben, N.Y., USA) or XenoTech, LLC. (Lenexa, Kans., USA) or other suppliers, and stored in a condition below −70° C. before use.
(§7) Diluted working solutions of the sample for test in serial concentrations were added to an incubation system containing the human liver microsomes, probe substrate, and accessory factors of a cycling system, and a control containing no sample for test but a solvent was taken as a control for enzymatic activity (100%). Concentration of metabolites generated by the probe substrate in the sample was measured with a method of liquid chromatography-tandem mass spectrometry (LC-MS/MS). Nonlinear regression analysis of mean percentage activity vs concentration of the sample for test was carried out using SigmaPlot (V.11). An IC^50 value was calculated through a three-parameter or four-parameter inflection logarithmic equation.

CYP2D6 = target: T2, CYP2D6 (Homo sapiens, UniProt P10635); test: Inhibition on human liver microsome CYP2D6; type: in vitro ADME; conditions: human liver microsomes; for pIC50: 5-in-1 probe substrate
T2 construct: tissue Corning Inc. or XenoTech, LLC. or other suppliers; host or cells: mixed human liver microsomes
Procedure: as §5, §6, §7

CYP3A4 = target: T3, CYP3A4 (Homo sapiens, UniProt P08684); test: Inhibition on human liver microsome CYP3A4; type: in vitro ADME; conditions: human liver microsomes; for pIC50: 5-in-1 probe substrate
T3 construct: tissue Corning Inc. or XenoTech, LLC. or other suppliers; host or cells: mixed human liver microsomes
Procedure: as §5, §6, §7

CYP2C9 = target: T4, CYP2C9 (Homo sapiens, UniProt P11712); test: Inhibition on human liver microsome CYP2C9; type: in vitro ADME; conditions: human liver microsomes; for pIC50: 5-in-1 probe substrate
T4 construct: tissue Corning Inc. or XenoTech, LLC. or other suppliers; host or cells: mixed human liver microsomes
Procedure: as §5, §6, §7

[4] = Liver microsome stability, rat; type: in vitro ADME, SD rats; conditions: rat liver microsomes; for CLint scaled: SD, read-out: Intrinsic clearance; for Remaining % (60 min): 37° C.
Procedure: as §1, §2, §3, §4

T2 sequence (P10635 whole entry): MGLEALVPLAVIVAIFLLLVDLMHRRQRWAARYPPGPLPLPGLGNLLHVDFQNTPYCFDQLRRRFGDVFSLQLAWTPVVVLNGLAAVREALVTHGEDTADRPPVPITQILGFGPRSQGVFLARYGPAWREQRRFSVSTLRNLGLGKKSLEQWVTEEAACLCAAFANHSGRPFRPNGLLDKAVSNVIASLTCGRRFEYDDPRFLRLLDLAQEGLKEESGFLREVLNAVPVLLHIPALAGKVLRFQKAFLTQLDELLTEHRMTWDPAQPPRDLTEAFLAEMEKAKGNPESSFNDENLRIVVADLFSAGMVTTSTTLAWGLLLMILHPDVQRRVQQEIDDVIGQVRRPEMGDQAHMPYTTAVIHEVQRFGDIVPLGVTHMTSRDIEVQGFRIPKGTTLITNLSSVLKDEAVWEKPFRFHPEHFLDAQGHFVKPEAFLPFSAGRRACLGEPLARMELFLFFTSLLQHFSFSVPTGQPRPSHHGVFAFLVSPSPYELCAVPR
T1 sequence (P33261 whole entry): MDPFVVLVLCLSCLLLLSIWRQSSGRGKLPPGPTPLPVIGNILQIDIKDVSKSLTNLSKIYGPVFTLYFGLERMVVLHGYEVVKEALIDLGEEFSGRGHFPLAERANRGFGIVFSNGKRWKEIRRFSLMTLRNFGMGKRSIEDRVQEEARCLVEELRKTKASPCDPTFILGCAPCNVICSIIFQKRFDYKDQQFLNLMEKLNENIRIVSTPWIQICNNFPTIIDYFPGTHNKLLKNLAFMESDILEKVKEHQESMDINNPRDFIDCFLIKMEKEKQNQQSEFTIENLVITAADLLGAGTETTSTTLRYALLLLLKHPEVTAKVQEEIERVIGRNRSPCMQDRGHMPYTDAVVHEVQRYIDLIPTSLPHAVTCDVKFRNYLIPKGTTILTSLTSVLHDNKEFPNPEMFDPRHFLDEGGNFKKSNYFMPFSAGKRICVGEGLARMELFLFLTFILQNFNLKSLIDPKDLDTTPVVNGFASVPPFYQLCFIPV
T4 sequence (P11712 whole entry): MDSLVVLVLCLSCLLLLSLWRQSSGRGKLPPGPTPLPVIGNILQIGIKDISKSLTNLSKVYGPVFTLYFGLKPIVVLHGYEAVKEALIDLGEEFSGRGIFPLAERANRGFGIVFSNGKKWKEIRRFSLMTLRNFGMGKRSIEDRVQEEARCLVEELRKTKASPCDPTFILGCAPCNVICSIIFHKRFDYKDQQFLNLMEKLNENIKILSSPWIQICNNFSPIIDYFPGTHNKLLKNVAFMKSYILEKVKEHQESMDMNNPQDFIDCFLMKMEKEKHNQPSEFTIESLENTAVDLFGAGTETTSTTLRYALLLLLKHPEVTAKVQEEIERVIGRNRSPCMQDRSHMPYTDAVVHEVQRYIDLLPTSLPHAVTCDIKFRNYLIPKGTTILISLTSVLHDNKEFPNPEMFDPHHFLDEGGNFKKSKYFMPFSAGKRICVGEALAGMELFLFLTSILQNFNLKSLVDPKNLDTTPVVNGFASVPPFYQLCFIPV
T3 sequence (P08684 whole entry): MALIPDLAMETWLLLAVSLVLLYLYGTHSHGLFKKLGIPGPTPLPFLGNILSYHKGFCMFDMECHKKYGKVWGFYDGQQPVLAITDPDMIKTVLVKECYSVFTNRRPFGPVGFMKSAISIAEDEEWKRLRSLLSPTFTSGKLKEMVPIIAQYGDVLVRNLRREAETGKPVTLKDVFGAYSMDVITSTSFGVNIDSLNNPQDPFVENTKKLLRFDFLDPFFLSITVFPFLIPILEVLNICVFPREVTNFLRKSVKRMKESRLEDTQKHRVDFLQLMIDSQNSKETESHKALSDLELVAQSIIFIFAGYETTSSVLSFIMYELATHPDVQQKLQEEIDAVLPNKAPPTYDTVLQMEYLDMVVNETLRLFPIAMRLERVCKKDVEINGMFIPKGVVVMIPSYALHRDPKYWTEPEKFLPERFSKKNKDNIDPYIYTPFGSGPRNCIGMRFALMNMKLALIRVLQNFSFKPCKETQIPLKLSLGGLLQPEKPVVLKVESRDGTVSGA

SMILES | CLint scaled [1] [mL/min/kg] | metabolic stability in words [1] | Remaining % (60 min) [1] [%] | metabolic stability in words [2] | Remaining % (60 min) [2] [%] | CLint scaled [2] [mL/min/kg] | AUC(0-inf) [3] [µM·h] | AUC(0-t) [3] [µM·h] | Vd [3] [L/kg] | clearance [3] [mL/min/kg] | half-life [3] [h] | inhibiting effect on CYP2C19 in words (CYP2C19) | pIC50 (CYP2C19) | pIC50 (CYP2D6) | pIC50 (CYP3A4) | pIC50 (CYP2C9) | CLint scaled [4] [mL/min/kg] | metabolic stability in words [4] | Remaining % (60 min) [4] [%] | other results
NS(=O)(=O)NCCNc1nonc1C(=NO)Nc1ccc(F)c(Br)c1 [Compound 360, INCB024360, reference compound] |  |  |  |  |  |  |  |  |  |  |  |  |  |  |  |  |  |  |  | growth of tumors in mice colon cancer CT26 model (mice colon cancer CT26): effectively inhibit growth of tumors
CC(=O)NCCSc1nonc1/C(=N/O)Nc1ccc(F)c(Br)c1 [Compound 0227] | 275 | metabolized quickly | 11.0 | metabolized in a moderate manner | 56.9 | 15.3 | 0.628 | 0.624 | 2.66 | 64.2 | 0.867 | intermediate degree | 5.44 | 4.58 | 4.41 | 4.80 | 91.9 | metabolized quickly | 21.6 | 
NC(=O)NCCSc1nonc1/C(=N/O)Nc1ccc(F)c(Br)c1 [Compound 0231] | 134 | metabolized quickly | 35.8 | metabolized in a relatively steady manner | 81.6 | < 8.6 | 0.881 | 0.852 | 4.85 | 55.1 | 2.44 | relatively weak effect | 4.44 | < 4.30 | < 4.30 | < 4.30 | 23.7 | metabolized in a relatively steady manner | 64.8 | Conc. (8 h) ([3]; plasma, 8 h): 8.16/ND nM; inhibiting effect on CYP2D6 in words (CYP2D6): relatively weak effect; inhibiting effect on CYP3A4 in words (CYP3A4): relatively weak effect; inhibiting effect on CYP2C9 in words (CYP2C9): relatively weak effect

Source: patent US20190169140A1, “IDO1 INHIBITOR AND PREPARATION METHOD AND APPLICATION THEREOF” (SHANDONG LUYE PHARMACEUTICAL CO., LTD., priority 2016, published 2019)
